Laboratory results taken from patent US12194033B2, “Glycine receptor modulators and methods of use” (University of Pittsburgh—Of the Commonwealth System of …, priority 2017, dated 2025).

Assays:
human α3GlyR = biological target: T1, human α3GlyR (Homo sapiens, UniProt O75311); assay: In vitro functional electrophysiology in Xenopus laevis oocytes; assay type: cell-based
T1 construct: expressed in transfected cells; host or cells: Xenopus laevis oocytes
T1 sequence (O75311 34-464): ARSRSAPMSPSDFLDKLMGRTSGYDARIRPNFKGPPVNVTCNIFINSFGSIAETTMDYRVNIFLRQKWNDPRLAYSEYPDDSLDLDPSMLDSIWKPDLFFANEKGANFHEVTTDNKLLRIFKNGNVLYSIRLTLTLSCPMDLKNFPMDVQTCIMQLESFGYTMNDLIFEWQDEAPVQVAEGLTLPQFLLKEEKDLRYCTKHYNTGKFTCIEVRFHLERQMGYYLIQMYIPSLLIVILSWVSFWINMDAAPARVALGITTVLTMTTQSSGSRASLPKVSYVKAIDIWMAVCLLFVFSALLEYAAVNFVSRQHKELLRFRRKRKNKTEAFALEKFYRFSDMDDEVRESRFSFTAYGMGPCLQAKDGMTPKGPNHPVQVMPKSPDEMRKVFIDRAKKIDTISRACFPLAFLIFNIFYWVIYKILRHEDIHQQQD
Procedure: I/Io is calculated as the ratio of the current measured in the presence (I) and absence (Io) of compound 1 or THC at the indicated concentrations. Error bars designate the standard error of the mean (n≥4).
FIGS. 2A and 2B are bar graphs showing the effect of compound 1 on modulation of human glycine receptor subtypes (α1GlyR, α3GlyR, α1βGlyR, and α3βGlyR) expressed in Xenopus laevis oocytes activated by 2% (FIG. 2A) and 20% (FIG. 2B) maximal effective concentration of glycine. I/Io was calculated as the ratio of the current measured in the presence (I) and absence (Io) of 10 μM compound 1. Error bars designate the standard error of the mean (n≥4).
The compounds disclosed in Table 1 were assessed for in vitro modulation of human GlyRs. […] The assessed compounds were compounds 1 (3A), 2 (3B), 3 (3C), 4 (3D), 5 (3E), 6 (3F), 7 (3G), and 8 (3H). I/Io was calculated as the ratio of the current measured in the presence (I) and absence (Io) of 10 μM of the indicated compound. […]
MJPY1 potentiates α3GlyR through binding to the THC-binding site near S296 in the transmembrane domain (TMD). […] Data were recorded at EC2 agonist for the indicated channels and are reported as the ratio of currents in the presence (I) and absence (Io) of 10 μM compound 1 (MJPY1). […]

[1] = test system: chimera ELIC-α3GlyR containing the α3GlyR TMD; assay: Electrophysiology on Xenopus laevis oocytes, chimera; assay type: cell-based; settings: EC2 agonist, 10 μM compound
Procedure: MJPY1 potentiates α3GlyR through binding to the THC-binding site near S296 in the transmembrane domain (TMD). Like α3GlyR, but unlike ELIC, the chimera ELIC-α3GlyR containing the α3GlyR TMD is potentiated by MJPY1. The S296A mutation in α3GlyR abolishes compound 1 (MJPY1)'s potentiation. Data were recorded at EC2 agonist for the indicated channels and are reported as the ratio of currents in the presence (I) and absence (Io) of 10 μM compound 1 (MJPY1). Error bars represent SEM (n≥4 oocytes).

C57Bl/6J mice = assay: Hargreaves test in C57Bl/6J mice; assay type: in vivo
Procedure: In vivo mouse behavior tests validated the analgesic action of the representative compounds in response to inflammation. Responses of C57Bl/6J mice to the Hargreaves test (Pain, 32:77-88, 1988) were assessed pre- and post-application of compound 1 alone (white circles, application time=0 hours). […] Error bars designate the standard error of the mean (n≥4).

mice = assay: Two-plate thermal preference test (30° C. vs 55° C.); assay type: in vivo
Procedure: Responses to the two-plate thermal preference test were assessed under naïve conditions and 1 hour after administration of 0.2 mg/kg compound 1, 0.1 mg/kg morphine, or 0.2 mg/kg compound 1+0.1 mg/kg morphine. Unrestrained mice were exposed to plates set to normal and hot temperatures (30° C. and 55° C., respectively). Temperature preference was measured by percentage time spent on the hot plate (55° C.) over the course of 4 minutes, where 50% indicates no preference between the two temperatures. […] Error bars designate the standard error of the mean (n≥5).
Unrestrained mice were exposed to plates set to normal and hot temperatures (30° C. and 55° C., respectively) for 10 minutes. […] Error bars designate the standard error of the mean (n=4).
The percent inactivity on the 55° C. plate (mean±SEM) is a measure of heat tolerance. Significance was assessed by one-way ANOVA with LSD post-hoc test.

4 2-nAChR = 4 2-nAChR (Homo sapiens, UniProt P17787+P43681); assay: Radioligand binding assay, off-target profiling; settings: 10 M MJPY1, mean, n = 4
5-HT3R = biological target: T2, 5-HT3R (Homo sapiens, UniProt P46098); assay: Radioligand binding assay, off-target profiling; settings: 10 M MJPY1, mean, n = 4
T2 sequence (P46098 24-478): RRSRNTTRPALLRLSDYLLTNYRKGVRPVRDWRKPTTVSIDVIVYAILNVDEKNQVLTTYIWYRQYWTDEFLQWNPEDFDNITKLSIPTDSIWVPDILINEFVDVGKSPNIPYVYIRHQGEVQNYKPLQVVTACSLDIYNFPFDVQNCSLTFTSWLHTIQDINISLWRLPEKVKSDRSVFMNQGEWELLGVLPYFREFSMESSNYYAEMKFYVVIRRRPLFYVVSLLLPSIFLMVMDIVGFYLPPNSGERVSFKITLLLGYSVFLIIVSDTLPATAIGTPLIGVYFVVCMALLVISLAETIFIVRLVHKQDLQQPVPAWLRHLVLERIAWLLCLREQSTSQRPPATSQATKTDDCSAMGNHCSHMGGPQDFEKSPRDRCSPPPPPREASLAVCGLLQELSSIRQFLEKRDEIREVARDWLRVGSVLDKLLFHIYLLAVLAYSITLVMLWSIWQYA

KOR = KOR (Homo sapiens, UniProt P41145); assay: Radioligand binding assay, off-target profiling; settings: 10 M MJPY1, mean, n = 4
NMDAR = assay: Radioligand binding assay, off-target profiling; settings: 10 M MJPY1, mean, n = 4

Sequence of 4 2-nAChR (P43681 29-627 limits assumed): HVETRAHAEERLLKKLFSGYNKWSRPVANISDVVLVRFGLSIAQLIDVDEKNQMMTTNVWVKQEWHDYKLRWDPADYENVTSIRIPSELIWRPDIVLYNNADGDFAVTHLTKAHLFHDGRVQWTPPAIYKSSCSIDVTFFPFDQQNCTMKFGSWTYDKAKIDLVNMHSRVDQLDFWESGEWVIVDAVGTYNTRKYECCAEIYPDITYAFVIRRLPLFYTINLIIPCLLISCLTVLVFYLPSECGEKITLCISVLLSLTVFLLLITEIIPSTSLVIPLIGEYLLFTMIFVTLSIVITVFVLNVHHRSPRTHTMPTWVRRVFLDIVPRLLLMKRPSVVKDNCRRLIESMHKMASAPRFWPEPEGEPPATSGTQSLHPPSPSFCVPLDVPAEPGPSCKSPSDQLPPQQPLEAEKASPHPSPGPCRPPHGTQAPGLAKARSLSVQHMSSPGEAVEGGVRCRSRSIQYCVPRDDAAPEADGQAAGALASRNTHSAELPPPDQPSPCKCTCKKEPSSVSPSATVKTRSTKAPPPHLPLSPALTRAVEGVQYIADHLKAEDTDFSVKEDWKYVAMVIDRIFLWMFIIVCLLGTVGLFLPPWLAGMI
Sequence of 4 2-nAChR (P17787 26-502): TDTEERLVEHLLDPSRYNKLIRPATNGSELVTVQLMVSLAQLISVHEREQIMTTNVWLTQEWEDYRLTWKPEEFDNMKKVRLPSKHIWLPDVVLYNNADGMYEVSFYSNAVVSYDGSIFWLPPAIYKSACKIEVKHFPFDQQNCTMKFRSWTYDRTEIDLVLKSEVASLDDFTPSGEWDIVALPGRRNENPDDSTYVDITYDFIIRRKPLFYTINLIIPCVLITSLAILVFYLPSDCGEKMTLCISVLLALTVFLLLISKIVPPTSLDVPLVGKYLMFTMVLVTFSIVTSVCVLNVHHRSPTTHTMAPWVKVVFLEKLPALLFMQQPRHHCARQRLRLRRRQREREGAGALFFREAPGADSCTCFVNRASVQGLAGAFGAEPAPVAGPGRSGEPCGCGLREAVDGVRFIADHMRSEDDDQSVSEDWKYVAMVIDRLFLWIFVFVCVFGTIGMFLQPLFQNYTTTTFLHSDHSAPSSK
Sequence of KOR (P41145 whole entry): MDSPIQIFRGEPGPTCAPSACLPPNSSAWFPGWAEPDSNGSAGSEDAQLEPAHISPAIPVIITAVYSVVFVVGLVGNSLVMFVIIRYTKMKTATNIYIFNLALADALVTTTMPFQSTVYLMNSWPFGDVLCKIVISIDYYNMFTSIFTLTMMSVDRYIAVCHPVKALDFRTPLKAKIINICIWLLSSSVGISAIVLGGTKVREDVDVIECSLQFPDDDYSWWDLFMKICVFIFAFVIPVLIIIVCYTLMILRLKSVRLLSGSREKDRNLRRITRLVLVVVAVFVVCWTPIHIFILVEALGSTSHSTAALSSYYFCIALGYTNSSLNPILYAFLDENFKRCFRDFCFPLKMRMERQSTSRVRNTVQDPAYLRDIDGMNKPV

NC(=O)c1cccc(CNC(=O)c2ccc3c4c(cccc24)CC3)c1 [compound 1, N-[(3-carbamoylphenyl)-methyl]-1,2-dihydroacenaphthylene-5-carboxamide]
potentiation of α3GlyR (I/Io) (human α3GlyR; EC2 agonist, 10 μM compound): potentiates | modulation of human GlyRs (I/Io) (human α3GlyR; Xenopus laevis oocytes, 2% maximal effective concentration of glycine): modulated | potentiation of chimera ELIC-α3GlyR (I/Io) [1]: potentiated | response time for paw withdrawal (C57Bl/6J mice; maximum CFA-induced hyperalgesic conditions (24 hours post CFA)): increase in response time | response time for paw withdrawal (C57Bl/6J mice; normal nociceptive conditions): no significant effect | analgesic action compared with morphine (percent inactivity on the 55° C. plate) (mice; 0.1 mg/kg i.p., male CD1 mice, 24 hr after CFA, 1 hr after treatment, same dose): better than morphine | percentage time spent on the hot plate (55° C.) compared to naïve mice (mice; normal nociception, 1 hour after 0.2 mg/kg compound 1, 0.1 mg/kg morphine, or both, 4 minutes): no significant analgesic response | % Inhibition 4 2-nAChR (4 2-nAChR): −1.8% | % Inhibition 5-HT3R (5-HT3R): −5.7% | % Inhibition KOR (KOR): 5.0% | % Inhibition NMDAR (NMDAR): −2.4%
